Assay results as given in ChEMBL document CHEMBL4304795, “Bis-benzoxaboroles: Design, Synthesis, and Biological Evaluation as Carbonic Anhydrase Inhibitors” (ACS Med Chem Lett, 2019).

What was measured:
[1] = target: Carbonic anhydrase 2 (Homo sapiens, UniProt P00918); experiment: Inhibition of human carbonic anhydrase 2 assessed as reduction in CO2 hydration preincubated for 15 mins to 2 hrs by phenol red dye based stopped flow CO2 hydrase assay
[2] = target: Carbonic anhydrase 1 (Homo sapiens, UniProt P00915); experiment: Inhibition of human carbonic anhydrase 1 assessed as reduction in CO2 hydration preincubated for 15 mins to 2 hrs by phenol red dye based stopped flow CO2 hydrase assay
Chain of Carbonic anhydrase 1 (P00915 whole entry): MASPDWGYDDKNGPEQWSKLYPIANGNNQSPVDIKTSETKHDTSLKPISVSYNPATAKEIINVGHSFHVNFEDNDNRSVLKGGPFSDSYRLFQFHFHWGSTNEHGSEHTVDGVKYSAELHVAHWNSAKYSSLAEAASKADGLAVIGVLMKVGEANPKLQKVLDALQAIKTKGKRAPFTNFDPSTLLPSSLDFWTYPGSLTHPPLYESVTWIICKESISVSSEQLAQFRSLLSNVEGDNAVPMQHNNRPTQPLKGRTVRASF

[3] = target: Carbonic anhydrase 9 (Homo sapiens, UniProt Q16790); experiment: Inhibition of human carbonic anhydrase 9 assessed as reduction in CO2 hydration preincubated for 15 mins to 2 hrs by phenol red dye based stopped flow CO2 hydrase assay
[4] = target: Carbonic anhydrase 4 (Homo sapiens, UniProt P22748); experiment: Inhibition of human carbonic anhydrase 4 assessed as reduction in CO2 hydration preincubated for 15 mins to 2 hrs by phenol red dye based stopped flow CO2 hydrase assay
Chain of Carbonic anhydrase 4 (P22748 whole entry): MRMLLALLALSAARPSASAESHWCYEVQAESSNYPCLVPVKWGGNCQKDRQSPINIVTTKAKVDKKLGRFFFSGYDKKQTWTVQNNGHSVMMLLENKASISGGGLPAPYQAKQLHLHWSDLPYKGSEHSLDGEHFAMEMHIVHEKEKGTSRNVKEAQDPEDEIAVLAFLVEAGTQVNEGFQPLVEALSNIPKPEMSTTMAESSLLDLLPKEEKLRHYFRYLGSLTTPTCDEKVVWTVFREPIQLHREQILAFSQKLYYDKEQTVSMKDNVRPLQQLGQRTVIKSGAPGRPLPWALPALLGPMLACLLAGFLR

SMILES	Ki [1]	Ki [2]	Ki [3]	Ki [4]
O=C(/C=C/C=C/C(=O)Nc1ccc2c(c1)B(O)OC2)Nc1ccc2c(c1)B(O)OC2	3.93 µM	3.3 µM	4.87 µM	–
OB1OCc2ccc(/N=C/c3ccc(/C=N/c4ccc5c(c4)B(O)OC5)s3)cc21	2.34 µM	4.13 µM	0.203 µM	–
O=C(O)c1ccc2c(c1)B(O)OC2	0.173 µM	0.85 µM	0.4 µM	–
CC(C)(C)OC(=O)N[C@@H](CC(=O)Nc1ccc2c(c1)B(O)OC2)C(=O)Nc1ccc2c(c1)B(O)OC2	0.908 µM	0.813 µM	0.28 µM	–
O=C(C/C=C/CC(=O)Nc1ccc2c(c1)B(O)OC2)Nc1ccc2c(c1)B(O)OC2	2.58 µM	2.45 µM	1.12 µM	–
O=C(Nc1ccc2c(c1)B(O)OC2)c1cc(C(=O)Nc2ccc3c(c2)B(O)OC3)cc(C(=O)Nc2ccc3c(c2)B(O)OC3)c1	39.3 µM	21.9 µM	8.63 µM	> 100 µM
O=C(CCCCC(=O)Nc1ccc2c(c1)B(O)OC2)Nc1ccc2c(c1)B(O)OC2	0.541 µM	1.67 µM	0.312 µM	–
O=C(/C=C/C(=O)Nc1ccc2c(c1)B(O)OC2)Nc1ccc2c(c1)B(O)OC2	1.71 µM	3.21 µM	1.48 µM	–
O=C(CCC(=O)Nc1ccc2c(c1)B(O)OC2)Nc1ccc2c(c1)B(O)OC2	0.342 µM	2.89 µM	0.68 µM	–
O=C(CC[C@H](NC(=O)OCc1ccccc1)C(=O)Nc1ccc2c(c1)B(O)OC2)Nc1ccc2c(c1)B(O)OC2	0.289 µM	1.78 µM	0.0643 µM	–
O=C(CC(=O)Nc1ccc2c(c1)B(O)OC2)Nc1ccc2c(c1)B(O)OC2	0.339 µM	0.886 µM	0.158 µM	–
O=c1c(Nc2ccc3c(c2)B(O)OC3)c(Nc2ccc3c(c2)B(O)OC3)c1=O	2.28 µM	3.08 µM	–	–
